Results taken from publication PMC10052880 (Phytomedicine, 2023).

Legend:
SARS-CoV-2 3CL^pro [1] = target: T1, SARS-CoV-2 3CL^pro (Severe acute respiratory syndrome coronavirus 2, UniProt P0DTD1); experiment: biochemical
SARS-CoV-2 3CL^pro [2] = target: T1, SARS-CoV-2 3CL^pro; experiment: Inactivation kinetic analyses against SARS-CoV-2 3CL^pro; type: biochemical
[3] = IC50 (μM) 3 min, 3 min preincubation
[4] = IC50 (μM) 63 min, 63 min preincubation

SMILES	Ratio (SARS-CoV-2 3CL^pro [1])	IC50 (SARS-CoV-2 3CL^pro [1]; [3]) [µM]	IC50 (SARS-CoV-2 3CL^pro [1]; [4]) [µM]	Ki (SARS-CoV-2 3CL^pro [2]) [µM]	kinact (SARS-CoV-2 3CL^pro [2]; read-out: Kinact (min^−1)) [min⁻¹]
COc1ccc(-c2cc(=O)c3c(O)cc(O)c(-c4cc(-c5cc(=O)c6c(O)cc(O)cc6o5)ccc4OC)c3o2)cc1 [isoginkgetin]	2.01	70.8	35.2		
Oc1cc(O)c2c(c1)O[C@H](c1ccc(O)c(O)c1)[C@H](O)C2 [epicatechin]	6.22	70.6	11.3		
O=c1cc(-c2ccc(O)cc2)oc2cc(O)cc(O)c12 [apigenin]	3.62	115	31.7		
Oc1cc(O)c2c(c1)O[C@H](c1cc(O)c(O)c(O)c1)[C@@H](O)C2 [gallocatechin]	3.30	3.23	0.98	2.52	0.03
O=c1cc(-c2ccc(O)c(O)c2)oc2cc(O)cc(O)c12 [luteolin]	10.57	195	18.4		
COc1ccc(-c2cc(=O)c3c(O)cc(O)cc3o2)cc1-c1c(O)cc(O)c2c(=O)cc(-c3ccc(O)cc3)oc12 [bilobetin]	3.54	32.1	9.06		
O=c1cc(-c2ccc(O)c(-c3c(O)cc(O)c4c(=O)cc(-c5ccc(O)cc5)oc34)c2)oc2cc(O)cc(O)c12 [amentoflavone]	1.92	82.1	42.9		
COc1cc(O)c2c(=O)cc(-c3ccc(OC)c(-c4c(O)cc(O)c5c(=O)cc(-c6ccc(O)cc6)oc45)c3)oc2c1 [ginkgetin]	10.32	76.5	7.42		
